Results on 1 compound are retold here after patent US11639346B2, “Quinazoline derivatives as modulators of mutant KRAS, HRAS or NRAS” (Araxes Pharma LLC, priority 2017, dated 2023).

SMILES strings stand for the structures.

For this experiment, the target named is T1, KRAS G12C 1-169, his-tagged protein, GDP-loaded (Homo sapiens, UniProt P01116, G12C).
T1 construct: KRAS G12C 1-169, his-tagged protein, GDP-loaded; His tag
Briefly: Biochemical assay: covalent modification of KRAS G12C measured by mass spectrometry. The format is binding. The note with it: after a 10 minute incubation period. As to the method:
Test compounds are prepared as 10 mM stock solutions in DMSO (Fisher cat #BP-231-100). KRAS G12C 1-169, his-tagged protein, GDP-loaded is diluted to 2 μM or 0.5 μM in buffer (20 mM Hepes, 150 mM NaCl, 1 mM MgCl2). Compounds are tested for activity as follows:
Compounds are diluted to 50× final test concentration in DMSO in 96-well storage plates. Compound stock solutions are vortexed before use and observed carefully for any sign of precipitation. […] The plate is then resealed with aluminum seal and stored on dry ice until analyzed as described below.
The above described assays are analyzed by mass spectrometry according to one of the following two procedures: […]
After another 30 minute equilibration time, a blank batch (i.e., buffer) is run to ensure equipment is operating properly. […] The method is then run and masses of each individual well recorded. […]
The masses and peak intensities of KRAS G12C protein species are measured using a Dionex RSLCnano system (Thermo Scientific) connected to a Q Exactive Plus mass spectrometer (Thermo Scientific). […]
The mass spectrometer is operated in profile mode at a resolution of 17500, 5 microscans, using 50 msec max injection time and an AGC target of 1×10^6, and a full mass range from 800-1850 m/z is recorded. […]

T1 sequence (P01116 1-169 isoform P01116-2 G12C): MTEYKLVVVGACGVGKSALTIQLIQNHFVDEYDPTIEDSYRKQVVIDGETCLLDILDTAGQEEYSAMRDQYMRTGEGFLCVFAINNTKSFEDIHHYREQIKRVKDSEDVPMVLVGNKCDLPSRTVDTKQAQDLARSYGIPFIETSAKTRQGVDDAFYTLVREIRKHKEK

As to `C=CC(=O)N1C[C@H](C)N(c2nc(C3CN(C(C)C)C3)nc3c(F)c(-c4c(O)cccc4F)c(Cl)cc23)C[C@H]1C` (atropisomer, axis not shown) [Compound 1, 1-((2R,5S)-4-((S)-6-chloro-8-fluoro-7-(2-fluoro-6-hydroxyphenyl)-2-(1-isopropylazetidin-3-yl)quinazolin-4-yl)-2,5-dimethylpiperazin-1-yl)prop-2-en-1-one], the “binding to KRAS G12C (modification percentage)” value is “greater than 75%”.
